How the values were obtained:
[1] = target: T1, carboxylic acid reductase (aryl aldehyde oxidoreductase) (Nocardia iowensis, UniProt Q6RKB1); assay: Substrate specificity of crude carboxylic acid reductase (100,000×g supernatant); assay type: biochemical, Nocardia sp. NRRL 5646; design: Crude enzyme preparations consisting of 100,000×g supernatants were used in this study; endogenous in cells; host or cells: Nocardia sp; NRRL 5646, crude 100,000×g supernatant
Description: (§1) Enzyme assay. The standard aryl-aldehyde oxidoreductase assay solution contained 0.15 mM […], 1 mM ATP, and 5 mM sodium benzoate, 10 mM MgCl2 and 0.01 to 0.3 units of enzyme in 50 mM Tris-HCl buffer in a final volume of 0.7 ml. The reference cuvette contained all components except for benzoate. Enzyme reactions were initiated by adding enzyme, and they were monitored by recording the absorption decrease at 340 nm at 25° C. with a Shimadzu 160 spectrophotometer.
Crude enzyme preparations consisting of 100,000×g supernatants were used in this study. […] The relative rate of reduction for each carboxylic acid derivative is expressed as the percentage of the initial rate of benzoate reduction.
The range of oxidoreductase activities of crude, 100,000×g Nocardia extract with a variety of substrates was investigated. Various substituted 2-, 3- and 4-substituted benzoates were examined, including a range of ring-activating and ring-deactivating functional groups. Benzoates substituted with halogens, methyl, methoxy, hydroxy, acetyl, nitro, benzoyl, phenyl, and phenoxyl groups as well as aryl-ring systems containing two (naphthalene) and three (fluorene) rings, and heterocyclic aromatic acids including furoic, nicotinic and indole carboxylic acids were considered. In addition, one cinnamic acid derivative, phenyl-acetate, phenyl-malonate, phenyl-succinate and 2-phenylpropionic acid were studied.

Nocardia sp. NRRL 5646 = assay: Induction of the enzyme by benzoate in stage two cultures; assay type: cell-based; settings: NRRL5646, 24 h, read-out: induction of specific activity of aryl aldehyde oxidoreductase in crude extracts
Description: Shaken flask cultures were grown by a standard two stage incubation protocol (Betts et al., J. Med. Chem. 17:599-602 (1974)) in 200 ml of sterile medium held in stainless steel-capped 1-liter DeLong culture flasks. The medium, containing (wt/vol) 2% glucose, 0.5% yeast extract, 0.5% soybean flour, 0.5% NaCl, and 0.5% K2 HPO4 in distilled water, was adjusted to pH 7.2 with 6 N HCl, and then autoclaved at 121° C. for 20 min. Cultures were incubated by shaking at 250 rpm at 28° C. on New Brunswick Scientific, C25 Gyrotory shakers. A 10% inoculum derived from a 72-hour first-stage culture was used to initiate the second-stage culture, which was incubated as before. […] The culture was harvested 24 hours after the addition of benzoate, the cells were collected from the medium by centrifugation at 8,000×g for 20 min., and washed twice with 0.9% NaCl. Cell pellets were stored at -38° C. until needed. Typical wet cell yields by this cultivation process were approximately 25 g/liter.
As a result, it was determined that the specific activity of aryl aldehyde oxidoreductase in crude extracts of Nocardia sp. NRRL 5646 could be induced up to 10 fold by the addition of up to 5 mg/ml benzoate to the 24 hour, stage two cultures.

[2] = target: T1, carboxylic acid reductase (aryl aldehyde oxidoreductase); assay: Kinetic properties of the purified carboxylic acid reductase (standard enzyme assay); settings: for Vmax: purified enzyme, mean of three determinations
Description: as §1
Kinetic constants were obtained by fitting experimental data with the EZ-FIT program developed by Perrella (Perrella, Anal. Biochem. 174:437-447 (1987)).
S(+)-α-Methyl-4-[2-methylpropyl]-benzeneacetic acid (ibuprofen) was from Aldrich Chemical Co. R(-) isomer of ibuprofen was a gift from Dr. Ching-Shih Chen, University of Rhode Island (Chen et al., Biochim. Biophys. Acta 1033:1-6 (1990)). […] Substrate enantiopurities were checked by specific rotation determination for each isomer (Chen and Rosazza, Appl. Environ. Microbiol. 60(4):1292-1296 (1994)).

[3] = target: T2, oxidoreductase from Neurospora crassa (Neurospora crassa, UniProt Q7RW48); settings: Eur. J. Biochem. 8:413 (1969); cited from earlier work
T2 construct: host or cells: crude Neurospora crassa preparation (Eur. J. Biochem. 8:413 (1969))
T2 sequence (Q7RW48 1-1052): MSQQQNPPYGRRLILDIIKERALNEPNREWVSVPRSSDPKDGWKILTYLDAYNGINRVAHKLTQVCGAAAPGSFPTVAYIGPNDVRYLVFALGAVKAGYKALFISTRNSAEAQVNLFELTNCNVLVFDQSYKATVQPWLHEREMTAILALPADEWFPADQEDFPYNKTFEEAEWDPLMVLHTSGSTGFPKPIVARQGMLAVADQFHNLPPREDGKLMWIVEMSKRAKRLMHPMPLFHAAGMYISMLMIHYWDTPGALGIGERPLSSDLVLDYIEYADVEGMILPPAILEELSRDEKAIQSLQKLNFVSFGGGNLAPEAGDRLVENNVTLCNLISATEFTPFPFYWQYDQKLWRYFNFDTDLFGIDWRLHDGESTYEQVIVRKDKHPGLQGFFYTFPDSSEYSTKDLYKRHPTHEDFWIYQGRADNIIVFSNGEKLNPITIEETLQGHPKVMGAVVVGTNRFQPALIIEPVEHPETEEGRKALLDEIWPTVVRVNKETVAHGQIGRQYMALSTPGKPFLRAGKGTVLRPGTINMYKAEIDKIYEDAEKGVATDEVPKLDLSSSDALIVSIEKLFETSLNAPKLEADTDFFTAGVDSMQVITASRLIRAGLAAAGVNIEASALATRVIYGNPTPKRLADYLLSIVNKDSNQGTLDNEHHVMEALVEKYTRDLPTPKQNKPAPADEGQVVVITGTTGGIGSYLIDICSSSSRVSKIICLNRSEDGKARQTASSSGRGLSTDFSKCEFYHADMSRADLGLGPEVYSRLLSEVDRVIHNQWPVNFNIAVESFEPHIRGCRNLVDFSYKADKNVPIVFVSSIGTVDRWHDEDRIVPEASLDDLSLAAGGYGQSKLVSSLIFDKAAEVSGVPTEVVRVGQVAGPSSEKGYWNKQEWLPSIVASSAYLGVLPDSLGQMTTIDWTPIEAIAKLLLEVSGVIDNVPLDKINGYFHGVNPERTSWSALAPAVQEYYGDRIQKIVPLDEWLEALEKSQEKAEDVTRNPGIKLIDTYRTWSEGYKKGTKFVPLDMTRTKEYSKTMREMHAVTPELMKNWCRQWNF

T1 sequence (Q6RKB1 whole entry): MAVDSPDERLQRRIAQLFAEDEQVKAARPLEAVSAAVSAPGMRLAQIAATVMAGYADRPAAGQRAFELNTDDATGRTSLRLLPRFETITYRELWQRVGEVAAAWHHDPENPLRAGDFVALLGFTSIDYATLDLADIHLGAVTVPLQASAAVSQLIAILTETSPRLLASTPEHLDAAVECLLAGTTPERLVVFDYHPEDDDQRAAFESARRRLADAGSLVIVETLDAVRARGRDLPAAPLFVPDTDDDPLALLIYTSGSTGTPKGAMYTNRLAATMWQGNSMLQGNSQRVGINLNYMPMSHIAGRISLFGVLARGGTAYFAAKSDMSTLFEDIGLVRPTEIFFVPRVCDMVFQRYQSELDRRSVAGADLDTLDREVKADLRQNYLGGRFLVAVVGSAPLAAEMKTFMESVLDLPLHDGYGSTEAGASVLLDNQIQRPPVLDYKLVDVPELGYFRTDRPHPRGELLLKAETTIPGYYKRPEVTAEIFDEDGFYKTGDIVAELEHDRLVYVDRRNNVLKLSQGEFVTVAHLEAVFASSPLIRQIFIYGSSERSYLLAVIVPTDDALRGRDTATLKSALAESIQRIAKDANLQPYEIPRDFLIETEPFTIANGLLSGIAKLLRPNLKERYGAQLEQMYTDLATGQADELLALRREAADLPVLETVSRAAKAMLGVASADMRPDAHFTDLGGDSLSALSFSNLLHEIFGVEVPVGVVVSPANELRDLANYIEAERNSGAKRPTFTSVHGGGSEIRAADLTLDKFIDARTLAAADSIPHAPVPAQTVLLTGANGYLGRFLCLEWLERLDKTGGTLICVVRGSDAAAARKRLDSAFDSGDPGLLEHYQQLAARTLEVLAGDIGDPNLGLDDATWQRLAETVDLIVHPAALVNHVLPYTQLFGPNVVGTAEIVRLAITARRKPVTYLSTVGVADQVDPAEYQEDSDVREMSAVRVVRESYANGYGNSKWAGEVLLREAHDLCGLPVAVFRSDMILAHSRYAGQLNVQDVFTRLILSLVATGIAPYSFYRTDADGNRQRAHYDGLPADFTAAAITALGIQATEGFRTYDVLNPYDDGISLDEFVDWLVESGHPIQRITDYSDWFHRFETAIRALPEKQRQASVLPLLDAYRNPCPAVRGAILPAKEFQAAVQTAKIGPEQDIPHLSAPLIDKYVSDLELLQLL

For `O=C(O)c1ccccc1` [benzoic acid], the “Relative Activity” value ([1]; 5 mM substrate, 0.15 mM NADPH, 1 mM ATP, 50 mM Tris-HCl pH 7.5, percentage of the initial rate of benzoate reduction) was 100 percentage, the “quality as substrate of the enzyme (in words)” value ([1]; substrates of Table 2) was “best substrates” and the “rate of benzoate reduction” value ([1]; typical, crude enzyme, 5 mM) was 0.066 ΔA340 /min. For the same compound, the “rate of benzoate reduction (equivalent)” value ([1]; typical, crude enzyme, 5 mM) was 10.6 µM/min, the fold induction at 5000 µg/mL (Nocardia sp. NRRL 5646) was at most 10 and the “inhibition of the enzyme by benzoate” value ([2]; benzoate concentration up to 2 mM) was “no inhibition was observed”. For the same compound, the “apparent Km relative to Km reported for the enzyme from Nocardia asteroides” value ([2]; higher than values reported by Kato et al.) was “more than 1000 fold”, the turnover number ([2]; pseudo-first order reaction conditions) was 126 min⁻¹ and the Vmax [2] was 0.902 ± 0.04 μmol/min/mg of protein. The Vmax ([2]; listed as benzoate) was 0.902±0.04 μmol/min/mg of protein, the Km [3] was 63 µM and the “benzoate concentration at which activity is inhibited” value [3] was 300 µM.
